Like-named read-outs stand apart in the source and are kept apart here.
Tests used:
[1] = target: T1, CRBN / ASS1 (Homo sapiens, UniProt Q96SW2); assay: ViroTrap (gag-CRBN bait) with LC-MS/MS: molecular glue-induced recruitment of endogenous ASS1 to CRBN in virus-like particles; assay type: cell-based
T1 construct: expressed in transfected cells; host or cells: HEK293T
From the text: In this study we evaluated the use of ViroTrap to identify molecular glue-induced endogenous (neo)substrates of CRBN in HEK293T cells. For this purpose, we used a previously described method known as ViroTrap (Eyckerman, et al. “Trapping mammalian protein complexes in viral particles,” Nature Communications 7: 11416 (2016); Titeca, et al. “Analyzing trapped protein complexes by Virotrap and SFINX.” Nature Protocols 12.5 (2017): 881). With this method, CRBN is expressed as a fusion protein with the viral protein HIV-GAG. HIV-GAG, when expressed in cells, such as HEK293T, is capable of triggering the formation of virus-like particles that bud off the cells. In the particle, the HIV-GAG protein is oriented towards the center of the particle. […] In the event the GAG-CRBN fusion interacts with proteins inside the cells, such proteins are dragged/trapped along with GAG-CRBN into the virus-like particles. In this manner, endogenous proteins that interact with CRBN, in presence or absence of a CRBN-ligand, can be identified. This is achieved by lysis of the particle and a standard mass-spectrometry analysis of tryptic digest of the sample. Subtractive analysis will then identify proteins that are specifically associated with the particle in response to a CRBN-ligand such as a molecular glue. […] Twenty-four hours after compound addition, virus-like particles (VLPs) were isolated from the cell supernatant using anti-Flag coated magnetobeads. After elution from the beads using Flag peptide, purified VLPs were lysed, and the protein content was digested overnight with trypsin. The peptide samples were analyzed through LC-MS/MS and label-free quantification data (LFQ intensities) from triplicate samples was processed using the MaxQuant software package and a volcano plot showing p-value (resulting from a two-sided t-test corrected for multiple testing; FDR 0.05%) versus LFQ intensity fold change (FIG. 1A-C) was generated with the Perseus tool.

[2] = target: FKBP12 / PPP3CA (Homo sapiens, UniProt P62942); assay: ViroTrap (gag-FKBP12 bait) with LC-MS/MS: FK506-induced binding of PPP3CA (calcineurin catalytic subunit) to FKBP12; assay type: cell-based; settings: HEK293T cells
FKBP12 / PPP3CA, sequence (P62942 whole entry, species assumed, other chains not shown): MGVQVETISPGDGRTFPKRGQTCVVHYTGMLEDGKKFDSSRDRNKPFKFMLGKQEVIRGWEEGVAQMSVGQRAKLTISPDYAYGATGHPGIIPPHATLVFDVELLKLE
FKBP12 / PPP3CA, sequence (P63098 2-170 partner limits assumed, species assumed, other chains not shown): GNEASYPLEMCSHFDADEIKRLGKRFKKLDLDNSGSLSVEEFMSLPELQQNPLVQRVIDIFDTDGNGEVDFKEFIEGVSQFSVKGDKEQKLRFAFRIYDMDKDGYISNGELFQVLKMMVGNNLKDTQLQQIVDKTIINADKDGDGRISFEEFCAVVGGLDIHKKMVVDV

[3] = target: PPP3CA, a calcineurin catalytic subunit, endogenous (UniProt Q08209); assay: ViroTrap: gag-FKBP12 VLPs from HEK293T cells, LC-MS/MS label-free quantification; FK506 1 µM versus DMSO control

T1 sequence (Q96SW2 whole entry, species assumed): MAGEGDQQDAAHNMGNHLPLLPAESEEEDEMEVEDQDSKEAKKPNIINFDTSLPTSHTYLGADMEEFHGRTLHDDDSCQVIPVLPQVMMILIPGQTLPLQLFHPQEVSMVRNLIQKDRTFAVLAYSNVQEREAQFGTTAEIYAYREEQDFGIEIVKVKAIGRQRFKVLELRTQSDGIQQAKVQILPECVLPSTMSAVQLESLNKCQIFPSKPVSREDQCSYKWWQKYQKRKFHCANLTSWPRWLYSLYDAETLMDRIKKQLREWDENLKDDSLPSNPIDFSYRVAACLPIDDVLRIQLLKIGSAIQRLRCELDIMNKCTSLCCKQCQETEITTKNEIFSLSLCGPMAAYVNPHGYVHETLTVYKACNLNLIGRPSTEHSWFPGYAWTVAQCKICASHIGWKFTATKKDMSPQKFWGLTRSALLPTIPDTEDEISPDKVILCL
T1 sequence (P00966 whole entry partner, species assumed): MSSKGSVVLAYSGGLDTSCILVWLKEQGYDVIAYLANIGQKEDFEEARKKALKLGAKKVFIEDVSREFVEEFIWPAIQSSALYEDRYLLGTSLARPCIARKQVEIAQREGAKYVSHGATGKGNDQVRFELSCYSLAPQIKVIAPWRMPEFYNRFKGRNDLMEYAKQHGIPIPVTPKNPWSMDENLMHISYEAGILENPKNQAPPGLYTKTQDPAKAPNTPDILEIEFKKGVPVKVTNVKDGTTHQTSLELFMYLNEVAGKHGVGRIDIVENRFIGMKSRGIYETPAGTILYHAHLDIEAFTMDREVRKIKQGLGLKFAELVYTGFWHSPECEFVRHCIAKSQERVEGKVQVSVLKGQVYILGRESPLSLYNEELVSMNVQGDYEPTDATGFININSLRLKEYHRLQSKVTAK
T1 sequence (Q16531 2-1140 partner limits assumed, species assumed): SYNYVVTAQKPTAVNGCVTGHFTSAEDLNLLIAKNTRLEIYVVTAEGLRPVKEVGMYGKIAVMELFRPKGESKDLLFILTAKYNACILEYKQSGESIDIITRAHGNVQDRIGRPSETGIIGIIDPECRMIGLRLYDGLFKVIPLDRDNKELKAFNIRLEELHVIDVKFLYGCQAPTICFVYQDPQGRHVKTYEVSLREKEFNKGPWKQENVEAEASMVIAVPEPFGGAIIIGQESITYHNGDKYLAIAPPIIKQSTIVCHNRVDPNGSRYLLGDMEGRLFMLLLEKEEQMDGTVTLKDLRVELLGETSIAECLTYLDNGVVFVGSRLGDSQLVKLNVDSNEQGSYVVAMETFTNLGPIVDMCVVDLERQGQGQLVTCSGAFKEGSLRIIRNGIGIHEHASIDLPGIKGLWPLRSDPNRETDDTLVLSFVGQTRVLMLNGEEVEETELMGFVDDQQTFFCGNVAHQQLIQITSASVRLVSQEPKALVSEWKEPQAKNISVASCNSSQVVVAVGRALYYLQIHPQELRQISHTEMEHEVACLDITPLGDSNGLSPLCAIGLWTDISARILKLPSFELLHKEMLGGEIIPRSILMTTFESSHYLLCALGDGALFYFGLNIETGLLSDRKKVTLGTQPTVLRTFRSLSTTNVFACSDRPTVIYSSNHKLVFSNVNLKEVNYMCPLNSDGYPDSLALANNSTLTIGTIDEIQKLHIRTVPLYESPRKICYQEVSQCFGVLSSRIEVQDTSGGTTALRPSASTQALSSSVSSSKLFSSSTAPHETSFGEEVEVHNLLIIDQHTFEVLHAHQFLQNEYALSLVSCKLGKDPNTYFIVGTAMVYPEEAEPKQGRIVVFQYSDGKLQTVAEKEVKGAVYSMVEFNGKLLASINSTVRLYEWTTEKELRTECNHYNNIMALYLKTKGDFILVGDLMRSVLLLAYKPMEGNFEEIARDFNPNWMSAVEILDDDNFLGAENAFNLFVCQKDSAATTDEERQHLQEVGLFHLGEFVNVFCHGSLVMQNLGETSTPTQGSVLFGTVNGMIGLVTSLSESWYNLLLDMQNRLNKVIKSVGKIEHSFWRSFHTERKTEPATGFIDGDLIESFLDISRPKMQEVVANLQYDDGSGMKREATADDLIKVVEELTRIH
gag-FKBP12 fusion protein, sequence (P62942 whole entry, the tested form may be a part): as the sequence (P62942 whole entry, species assumed, other chains not shown) above

Molecule: O=C1CC[C@H](N2Cc3c(OCc4ccc(CN5CCOCC5)cc4)cccc3C2=O)C(=O)N1 [CC-220]
- Compound-induced association of endogenous ASS1 with CRBN (result in words) ([1]; HEK293T cells, 10 μM lenalidomide, 10 μM pomalidomide, 1 μM CC-220, versus DMSO): induced the association of endogenous ASS1 with CRBN
- Fold change (LFQ intensity, compound versus DMSO) of target protein ASS1 ([1]; bait CRBN, 1 μM compound, HEK293T cells, VLPs isolated 24 h after compound addition, triplicate samples): 3.31

Molecule: C=CC[C@@H]1/C=C(\C)C[C@H](C)C[C@H](OC)[C@H]2O[C@@](O)(C(=O)C(=O)N3CCCC[C@H]3C(=O)O[C@H](/C(C)=C/[C@@H]3CC[C@@H](O)[C@H](OC)C3)[C@H](C)[C@@H](O)CC1=O)[C@H](C)C[C@@H]2OC [FK506, tacrolimus]
- FK506-induced enrichment of PPP3CA in gag-FKBP12 virus-like particles (result in words) ([2]; FK506 versus DMSO): enriched for the presence of PPP3CA
- Fold change (LFQ intensity, compound versus DMSO) of target protein PPP3CA ([2]; bait FKBP12, 1 μM compound): 9.71

Molecule: Nc1cccc2c1C(=O)N(C1CCC(=O)NC1=O)C2=O (stereo not shown) [Pomalidomide, pomalidomide]
- Compound-induced association of endogenous ASS1 with CRBN (result in words) [1]: induced the association of endogenous ASS1 with CRBN
- Fold change (LFQ intensity, compound versus DMSO) of target protein ASS1 [1]: 2.01

Molecule: gag-FKBP12 fusion protein (from UniProt P62942 1-108)
- Fold change (LFQ intensity, compound versus DMSO) [3]: 9.71 fold

Reference: patent publication US20220026439A1, “PARTICLE BASED SMALL MOLECULE-PROTEIN COMPLEX TRAP” (priority 2018, published 2022)
